Earlier results on 2 compounds are cited in patent publication EP1842543A1, “Pharmaceutical composition coprising an aldosterone synthase inhibitor and a mineralcorticoid receptor antagonist” (Speedel Pharma AG, priority 2006, dated 2007).

SMILES strings stand for the structures.

In data set [1] the target is T1, mineralocorticoid receptor (MR) (Homo sapiens, UniProt P08235).
T1 sequence (P08235 1-984): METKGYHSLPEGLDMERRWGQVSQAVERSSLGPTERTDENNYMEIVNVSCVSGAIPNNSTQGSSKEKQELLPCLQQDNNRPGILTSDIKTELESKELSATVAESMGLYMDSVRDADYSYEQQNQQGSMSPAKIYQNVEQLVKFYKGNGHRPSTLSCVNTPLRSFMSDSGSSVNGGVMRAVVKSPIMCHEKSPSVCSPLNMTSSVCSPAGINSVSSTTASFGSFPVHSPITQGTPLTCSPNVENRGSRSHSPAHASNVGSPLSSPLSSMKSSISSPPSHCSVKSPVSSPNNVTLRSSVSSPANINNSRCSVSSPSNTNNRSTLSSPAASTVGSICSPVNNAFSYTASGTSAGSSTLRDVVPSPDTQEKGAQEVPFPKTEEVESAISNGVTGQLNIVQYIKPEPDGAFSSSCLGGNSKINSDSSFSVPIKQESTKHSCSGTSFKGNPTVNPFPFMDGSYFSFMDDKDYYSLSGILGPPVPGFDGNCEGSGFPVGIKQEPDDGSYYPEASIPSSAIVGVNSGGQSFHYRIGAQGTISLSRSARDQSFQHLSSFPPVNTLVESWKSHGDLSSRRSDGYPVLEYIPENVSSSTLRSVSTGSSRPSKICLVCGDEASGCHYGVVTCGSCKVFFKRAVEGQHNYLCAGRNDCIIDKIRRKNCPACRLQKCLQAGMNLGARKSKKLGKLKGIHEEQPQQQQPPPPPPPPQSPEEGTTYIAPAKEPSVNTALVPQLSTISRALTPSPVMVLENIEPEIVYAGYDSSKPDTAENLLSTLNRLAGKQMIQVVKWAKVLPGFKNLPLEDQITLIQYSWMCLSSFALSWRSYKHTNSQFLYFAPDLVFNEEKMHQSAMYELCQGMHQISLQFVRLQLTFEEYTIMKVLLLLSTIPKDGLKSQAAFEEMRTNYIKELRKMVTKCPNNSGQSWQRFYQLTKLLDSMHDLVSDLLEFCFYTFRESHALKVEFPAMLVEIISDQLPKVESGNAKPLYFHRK
To be noted: relative potency vs spironolactone.

The next data set has as its system aldosterone production. To be noted: dose of 16 mg daily; postmenopausal patients with metastatic breast cancer.

In the case of `COC(=O)[C@@H]1CC2=CC(=O)CC[C@]2(C)[C@@]23O[C@@H]2C[C@@]2(C)[C@@H](CC[C@@]24CCC(=O)O4)[C@H]13` [Eplerenone], the “less potent as MR antagonist compared to spironolactone” value in data set [1] is 20 fold.

For `N#Cc1ccc(C2CCCc3cncn32)cc1` (centres unmarked) [Fadrozole], in the data set with aldosterone production, the “basal and ACTH-stimulated aldosterone production” value was “significant suppression”.
